Literature values, collected in article PMC3461336 (Biomacromolecules, 2012).

Settings: without dpA3

CC(=O)O[C@H]1C(=O)[C@@]2(C)[C@H]([C@H](OC(=O)c3ccccc3)[C@]3(O)C[C@H](OC(=O)[C@H](O)[C@@H](NC(=O)c4ccccc4)c4ccccc4)C(C)=C1C3(C)C)[C@]1(OC(C)=O)CO[C@@H]1C[C@@H]2O [PAX, Paclitaxel]
PAX solubility in aqueous solvents: < 0.1 µg/mL
